Assay [1] deals with S. cerevisiae vps1Δ apl2Δ growth inhibition, dose response. The assay is described as follows: vps1Δ apl2Δ double mutant yeast growth inhibitors – S. cerevisiae, background strain comparison, post-Golgi transport modulator project, dose response (AID 788).
In assay [2] the test system is S. cerevisiae wild-type background strain growth inhibition. Described as above. Particulars: S. cerevisiae vps1Δ apl2Δ growth inhibition, dose response; measured here: wild-type background strain growth.

Activity calls are given as the source filed them. The rule behind the calls is not given here.

Broadly, the IC50 is the concentration that inhibits the measured activity by half.

As to `COCCNc1cc(C)nc2c3c(C)cc(C)nc3nn12`, the IC50 in assay [1] was > 10 µM (inactive); in assay [2], above 10 µM.

`CCOC(=O)c1cccnc1SCc1cc(=O)n2ccccc2n1`: the figures for the IC50 in assay [1] and in assay [2] were > 10 µM (inactive) and above 10 µM, respectively.

For the molecule `COc1ccccc1N1CCN(Cc2ccccc2F)CC1`, the IC50 was > 10 µM (inactive) in assay [1] and above 10 µM in assay [2].

In the case of `C=CCc1ccccc1OCC(O)CN1CCN(Cc2ccc3c(c2)OCO3)CC1` (configuration not stated), the concentration for half-maximal inhibition (IC50) was 4.4 µM in assay [1] and above 10 µM in assay [2].

Take `O=S(=O)(NCC(c1cccnc1)N1CCN(c2ccccc2)CC1)c1cccs1` (configuration not stated): the IC50 in assay [1] was 23 µM; in assay [2] it was above 10 µM.

On to `O=C1c2cccc3c([N+](=O)[O-])ccc(c23)C(=O)N1c1ccc(Cl)cn1`, for which the IC50 in assay [1] is 18 µM (inactive); in assay [2], 6.08 µM.

As to `Cc1ccc(-n2cc3c(-c4cccc(Br)c4)nnc(C)c3n2)cc1`, the IC50 in assay [1] was 1.94 µM; in assay [2], 13.5 µM.

Consider `Cc1sc(NC(=O)c2ccco2)c(C(c2cccnc2)N2CCC(C)CC2)c1C` (configuration not stated), for which the IC50 was 9.99 µM (inactive) in assay [1] and 5.77 µM in assay [2].

Regarding `Cc1ccc(CN2CCN(/N=C/c3cc(Br)ccc3O)CC2)cc1`, the 50% inhibitory concentration (IC50) in assay [1] was 4.32 µM; in assay [2], above 10 µM.

Regarding `c1coc(CNc2nc(N3CCCCC3)nc3ccccc23)c1`, the values for the IC50 in assay [1] and in assay [2] were > 10 µM (inactive) and above 10 µM, respectively.

Regarding `c1ccc(Nc2cc(-c3ccccc3)nc3ncnn23)cc1`, the IC50 is 6.29 µM in assay [1] and above 10 µM in assay [2].

For the molecule `O=C(NCCSCc1ccc(Cl)cc1Cl)c1ccc(CN2CCOCC2)cc1`, the IC50 was 13.5 µM in assay [1] and above 10 µM in assay [2].

In the case of `C=C(C)C1CC=C(CN2CCC(C(=O)OCC)CC2)CC1` (configuration not stated), the concentration for half-maximal inhibition (IC50) in assay [1] was 13.5 µM; in assay [2], above 10 µM.

In the case of `COC(=O)C1=CN(CCCN2CCCC2=O)C=C(C(=O)OC)C1c1ccccc1C(F)(F)F`, the values for the IC50 in assay [1] and in assay [2] were > 10 µM (inactive) and above 10 µM, respectively.

On to `O=C(OCn1ncc(Cl)c(Cl)c1=O)c1cccc(C(F)(F)F)c1`, for which the IC50 is 6 µM (inactive) in assay [1] and 3.51 µM in assay [2].

Turning to `CCN(CC)CCCN(Cc1cc2cc3c(cc2[nH]c1=O)OCCO3)C(=O)Nc1ccc(F)cc1`, the figures for the IC50 in assay [1] and in assay [2] were > 10 µM (inactive) and above 10 µM, respectively.

Turning to `CCOC(=O)c1c(-n2c(C)cc(C=C3C(=O)NC(=S)NC3=O)c2C)sc2c1CCCC2`, the figures for the IC50 in assay [1] and in assay [2] were > 10 µM (inactive) and 11.5 µM, respectively.

As to `CCOC(=O)c1c(CN2CCCCC2C)oc2ccc(OC)cc12` (configuration not stated), the values for the IC50 in assay [1] and in assay [2] were > 10 µM (inactive) and above 10 µM, respectively.

In the case of `CC(C)OC(=O)CSc1nnc(-c2ccc(Cl)cc2)n1N`, the IC50 in assay [1] was > 10 µM (inactive); in assay [2], above 10 µM.

For the molecule `CCOC(=O)C1=C(CSc2nc(-c3ccccc3)ccc2C#N)OC(N)=C(C#N)C1c1cccnc1` (configuration not stated), the figures for the IC50 in assay [1] and in assay [2] were > 10 µM (inactive) and above 10 µM, respectively.

`Cn1c(=O)c2nc(NCc3ccccc3)cnc2n(C)c1=O`: the IC50 in assay [1] was > 10 µM (inactive); in assay [2], above 10 µM.

For the molecule `Cc1cccc(OCC(=O)O/N=C(\N)Cc2ccc(Cl)cc2)c1`, the IC50 in assay [1] was > 10 µM (inactive); in assay [2], 10.4 µM.

On to `Cc1cc(OCC(F)(F)C(F)(F)C(F)(F)C(F)(F)C(F)(F)C(F)F)nc(N)n1`, for which the IC50 in assay [1] is > 10 µM (inactive); in assay [2] it was above 10 µM.

As to `N[C@@H](Cc1c[nH]c2ccccc12)c1nnc(SCc2ccc(Cl)cc2)o1`, the IC50 in assay [1] is 24.8 µM (inactive); in assay [2], 20.4 µM.

Regarding `O=C1CC(N2CCN(c3ccc(Cl)c(Cl)c3)CC2)C(=O)N1` (configuration not stated), the IC50 in assay [1] was > 10 µM (inactive); in assay [2], above 10 µM.

On to `O=C(OCn1ncc(Cl)c(Cl)c1=O)c1ccc(C(F)(F)F)cc1`, for which the IC50 in assay [1] is 23.2 µM; in assay [2], above 10 µM.

`COc1ccc2oc(=O)c(-c3nnc(NCc4ccco4)s3)cc2c1`: the IC50 in assay [1] was > 10 µM (inactive); in assay [2], above 10 µM.

Regarding `O=C(Nc1nnc(-c2ccc3c(c2)CCCC3)o1)c1ccc(Cl)cc1Cl`, the IC50 in assay [1] is 6.32 µM (inactive); in assay [2], 3.46 µM.

`CCOC(=O)Cn1cc(C=O)c2ccccc21`: the IC50 in assay [1] was > 10 µM (inactive); in assay [2], above 10 µM.

As to `CC1CC(C)CN(CCOc2ccc(Cl)cc2Cl)C1` (configuration not stated), the IC50 was 6.68 µM in assay [1] and above 10 µM in assay [2].

On to `COc1cccc(-c2cc(C(=O)N3CCN(C(c4ccccc4)c4ccccc4)CC3)no2)c1`, for which the IC50 is > 10 µM (inactive) in assay [1] and above 10 µM in assay [2].

In the case of `O=C(Cn1nnc(-c2ccc(S(=O)(=O)N3CCCC3)cc2)n1)NCC1CCCO1` (configuration not stated), the IC50 in assay [1] was > 10 µM (inactive); in assay [2], above 10 µM.

Consider `O=C(NCC(c1cccnc1)N1CCN(c2ccccc2)CC1)C1CCCCC1` (configuration not stated), for which the IC50 in assay [1] was > 10 µM (inactive); in assay [2], above 10 µM.

For `O=C(N/N=C/c1ccc([N+](=O)[O-])o1)c1cc(-c2cccc(Br)c2)nc2ccccc12`, the IC50 in assay [1] was 1.02 µM; in assay [2], 4.65 µM.

With `COc1ccc(NC(=S)NC(NC(=O)c2ccc(Cl)cc2Cl)C(Cl)(Cl)Cl)c([N+](=O)[O-])c1` (configuration not stated), the IC50 was > 10 µM (inactive) in assay [1] and above 10 µM in assay [2].

For `Cc1ccc(S(=O)(=O)NC(CC(C)C)C(=O)Oc2ccc3c4c(c(=O)oc3c2)CCC4)cc1` (configuration not stated), the IC50 is > 10 µM (inactive) in assay [1] and above 10 µM in assay [2].

As to `CCOCCCNC(=O)C1CCN(C(=O)N(C)C)CC1`, the results for the IC50 in assay [1] and in assay [2] were > 10 µM (inactive) and above 10 µM, respectively.

Consider `CCN1CCN(c2c(Cl)cccc2NC(=O)c2ccc(Br)o2)CC1`, for which the IC50 was > 10 µM (inactive) in assay [1] and above 10 µM in assay [2].

With `CC(=O)Nc1ccccc1NS(=O)(=O)c1ccc(Cl)cc1`, the IC50 in assay [1] was > 10 µM (inactive); in assay [2], above 10 µM.

Take `Fc1ccc(-c2noc(C3CCN(Cc4cccnc4)CC3)n2)cc1`: the half-maximal inhibitory concentration (IC50) in assay [1] was 6.05 µM; in assay [2] it was above 10 µM.

As for `Cc1nn(Cc2cccc(C(=O)NC(C)c3ccc(C(C)(C)C)cc3)c2)c(C)c1[N+](=O)[O-]` (configuration not stated), the IC50 in assay [1] is > 10 µM (inactive); in assay [2], above 10 µM.

Take `O=C(NCc1ccccc1)NS(=O)(=O)c1ccccc1Cl`: the IC50 in assay [1] is > 10 µM (inactive); in assay [2], above 10 µM.

Turning to `Cc1ccc(/C=N/n2cnc3sc(-c4ccccc4)cc3c2=O)o1`, the IC50 is > 10 µM (inactive) in assay [1] and above 10 µM in assay [2].

`FC(F)(F)COc1nc(N2CCCCC2)nc(N2CCNCC2)n1`: the IC50 is > 10 µM (inactive) in assay [1] and above 10 µM in assay [2].

On to `Cc1ccc(C(=O)OCn2ncc(Cl)c(Cl)c2=O)cc1`, for which the IC50 in assay [1] was 4.22 µM; in assay [2] it was 4.62 µM.

Take `N#CC1=C(N)C(C#N)(C#N)C(c2cccnc2)C2CC(c3ccccc3)CC=C12` (configuration not stated): the IC50 in assay [1] is 2.89 µM; in assay [2] it was 2.97 µM.

In the case of `CCc1ccc(N(C(=O)c2csnn2)C(C(=O)NC(C)(C)C)c2ccncc2)cc1` (configuration not stated), the IC50 in assay [1] is > 10 µM (inactive); in assay [2], above 10 µM.

Turning to `COc1ccc(NC(=O)N(C2CCCCC2)C(C)c2cccnc2)c(OC)c1` (configuration not stated), the concentration for half-maximal inhibition (IC50) in assay [1] is 9.51 µM; in assay [2] it was 16.7 µM.

Regarding `Cc1cccc2cc(C#N)c(NCCCn3ccnc3)nc12`, the results for the IC50 in assay [1] and in assay [2] were > 10 µM (inactive) and above 10 µM, respectively.

Turning to `Cc1ccc(N2CCN(S(=O)(=O)N3CCCCCC3)CC2)cc1Cl`, the IC50 in assay [1] was > 10 µM (inactive); in assay [2] it was above 10 µM.

In the case of `CC1=CC(C)(C)Nc2ccc(OC(=O)CN3C(=O)c4cccc5cccc(c45)C3=O)cc21`, the IC50 in assay [1] is > 10 µM (inactive); in assay [2] it was above 10 µM.

Take `COc1ccc(NC(=O)c2ccc(CN3CCN(c4ccccc4)CC3)cc2)cc1`: the IC50 was > 10 µM (inactive) in assay [1] and above 10 µM in assay [2].

Take `C=CCc1ccc(OCC(O)CN2CCC(Cc3ccccc3)CC2)c(OC)c1` (configuration not stated): the IC50 in assay [1] was 4.2 µM; in assay [2], 19.1 µM.

Take `COc1ccc(/C=C2\SC(=S)N(NC(=O)c3csc4c3CCCC4)C2=O)cc1`: the IC50 is > 10 µM (inactive) in assay [1] and above 10 µM in assay [2].

Consider `CCN(CC)CCn1nc(C)nc1-c1ccccc1O`, for which the IC50 was > 10 µM (inactive) in assay [1] and above 10 µM in assay [2].

`NC(=O)c1c(NC(=O)CN2C(=O)CCC2=O)sc2c1CCCCC2`: the IC50 in assay [1] is > 10 µM (inactive); in assay [2], above 10 µM.

Regarding `COc1ccccc1N1CCN(CC(O)c2ccc3cc[nH]c3c2)CC1` (configuration not stated), the results for the IC50 in assay [1] and in assay [2] were > 10 µM (inactive) and above 10 µM, respectively.

As to `CN1C(=O)/C(=C/c2cccn2-c2ccc3ccccc3c2)C(=O)NC1=S`, the results for the IC50 in assay [1] and in assay [2] were 10.4 µM (inactive) and 6.58 µM, respectively.

On to `Cc1cccnc1Nc1nc(-c2ccccn2)cs1`, for which the IC50 was 22.7 µM in assay [1] and above 10 µM in assay [2].

As to `CCOc1ccc(NC(=O)C/C(N)=N/O)cc1`, the IC50 in assay [1] was > 10 µM (inactive); in assay [2], above 10 µM.

On to `O=C(N/N=C/c1ccc(OC(=O)c2ccccc2)cc1)c1ccc(CN2CCOCC2)cc1`, for which the figures for the IC50 in assay [1] and in assay [2] were > 10 µM (inactive) and above 10 µM, respectively.

Turning to `COc1ccc(C(=O)c2c(C(F)(F)F)oc3c2C(=O)c2ccccc2C3=O)cc1`, the IC50 in assay [1] is 22.7 µM (inactive); in assay [2] it was 2.32 µM.

Consider `CC1CN(CCCCOc2ccc(C(C)C)cc2)CC(C)O1` (configuration not stated), for which the IC50 in assay [1] is 0.703 µM; in assay [2] it was above 10 µM.

For the molecule `O=C1CN(C(=O)CSc2nnc(-c3ccccc3)n2Cc2ccc3c(c2)OCO3)c2ccccc2N1`, the IC50 in assay [1] is > 10 µM (inactive); in assay [2], above 10 µM.

With `O=C(Nc1cc(C(F)(F)F)ccc1-n1cncn1)c1ccc(-c2ccccc2)cc1`, the IC50 in assay [1] is > 10 µM (inactive); in assay [2] it was above 10 µM.

With `COCCNC(=O)C(c1ccc(F)cc1)N(CC1CCCO1)C(=O)CCC(=O)Nc1ccccn1` (configuration not stated), the IC50 in assay [1] was > 10 µM (inactive); in assay [2], above 10 µM.

(Values after PubChem BioAssay AID788 (SRMLSC, 2007).)
